From patent US10738074B2, “Cyclic di-nucleotide compounds as STING agonists” (Merck Sharp & Dohme Corp., priority 2015, dated 2020)

Assays:
THP1 cells = assay: IFN-β secretion in THP1 cell culture (5 h); assay type: cell-based, human; settings: IFN-β secretion, THP1 cells, 5 h, 30 μM; for activation at 30 µM: Homo sapiens, THP-1, 5 h, read-out: % Effect at 30 μM relative to 2′3′-cGAMP
Protocol: The ability of compounds to stimulate the secretion of interferon-beta from THP1 cells was measured using a human IFN-β AlphaLISA kit (Perkin Elmer, Cat. No. AL265F). The basic protocol is as follows:
A Labcyte Echo 550 acoustic dispenser was used to transfer 120 nL of compound dissolved in DMSO into the wells of an empty, sterile 384-well microplate, (Corning, Cat. No. 3712). THP1 cells (American Type Culture Collection, Cat. No. TIB202) previously frozen in Recovery Medium (Life Technologies, Cat. No. 12648-010) were thawed and immediately diluted 10-fold into 37° C. assay medium (RPMI 1640+L-Glutamine & phenol red, Life Technologies, Cat. No. 11875-085; 0.5% heat inactivated fetal bovine serum, Sigma Aldrich, Cat. No. F4135; 1 mM Sodium Pyruvate, Life Technologies, Cat. No. 11360-070; lx non-essential amino acids; Life Technologies, Cat. No. 11140-050). The cell viability and count was ascertained using a Beckman Coulter V-Cell XR cell counter. The cells suspension was centrifuged at 200×g for 5 min at RT. Cells were resuspended to a density of 0.8×10^6/mL in 37° C. assay medium. Subsequent liquid transfers were performed using either a Matrix electronic multichannel pipette or an Agilent Bravo Automated Liquid Handling Platform.
The assay was started by dispensing 40 μL of the previously prepared cell suspension into the wells of the plate containing compounds. After 5 h incubation at 37° C., 5% CO2 in a humidified atmosphere, the plate of cells and compounds was centrifuged at 200×g for 5 min at RT. From each well, 5 μL of supernatant was transferred into corresponding wells of a white 384-well plate (Perkin Elmer, Cat. No. 6005620). To these supernatant-containing wells was added 10 μL of 5× Anti-Analyte Acceptor beads (50 μg/mL of AlphaLISA HiBlock Buffer) and incubated for 30 min at RT while shaking on an orbital plate shaker. To each well was added 10 μL of 5× Biotinylated Antibody Anti-analyte (5 nM in AlphaLISA HiBlock Buffer) and incubated on an orbital plate shaker for 60 min at RT or overnight at 4° C. To each well was added 25 μL of 2× SA-Donor beads (80 μg/mL in AlphaLISA HiBlock Buffer) and incubated for 30-45 min at RT in the dark while shaking on an orbital plate shaker. The plate was then read on a Perkin Elmer Envision (λex=680 nm, λem=[…]). The percent effect of the AlphaLISA signal at each compound concentration was calculated based on 30 uM cGAMP positive controls and 0.3% DMSO negative controls. The plot of percent effect versus the log of compound concentration was fit with a 4-parameter concentration response equation to calculate EC50 values. The test compounds were tested at concentrations 30000, 10000, 3333, 1111, 370.4, 123.4, 41.2, 13.7, 4.6, and 1.5 nM with 0.3% residual DMSO.
Compounds of the disclosure were evaluated for IFN-β secretion in THP1 cell culture as described above. The following table tabulates the biological data for these compounds as percent activation relative to 2′3′-cGAMP at the 30 μM concentration.

full-length WT STING = full-length WT STING (Homo sapiens (Human), UniProt Q86WV6, H232R); assay: 3H-cGAMP filtration binding assay (WT STING); settings: competition with tritiated cGAMP, WT STING membrane
full-length WT STING, sequence (Q86WV6 other isoform, or with tags, fused parts or gaps H232R (already in the parent)): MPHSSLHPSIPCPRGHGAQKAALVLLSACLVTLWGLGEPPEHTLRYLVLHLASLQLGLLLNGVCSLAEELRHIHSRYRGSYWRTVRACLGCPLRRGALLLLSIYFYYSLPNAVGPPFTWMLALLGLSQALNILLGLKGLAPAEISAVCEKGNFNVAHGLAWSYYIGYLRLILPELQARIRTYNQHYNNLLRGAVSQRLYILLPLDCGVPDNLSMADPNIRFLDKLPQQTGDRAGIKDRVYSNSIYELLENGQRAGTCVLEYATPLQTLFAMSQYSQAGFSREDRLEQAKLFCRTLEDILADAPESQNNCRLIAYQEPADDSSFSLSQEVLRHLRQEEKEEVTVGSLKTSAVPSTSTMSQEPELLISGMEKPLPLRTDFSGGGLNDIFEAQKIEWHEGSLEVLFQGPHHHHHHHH
From the text: (§1) The ability of compounds to bind STING is quantified by their ability to compete with tritiated cGAMP ligand for human STING receptor membrane using a radioactive filter-binding assay. The binding assay employs STING receptor obtained from Trichoplusia ni cell membranes (Tni; Expression Systems, cat #94-002F, www.expressionsystems.com) overexpressing full-length WT STING prepared in-house and tritiated cGAMP ligand also purified in-house.
The basic WT STING filtration assay protocol is as follows:
The filter plates were then dried at 55° C. for 30 min using a pressurized VWR oven before 30 uL of Ultima GoldF scintillate was added to each well. Tritium levels for each reaction well were then measured using a PerkinElmer TopCount plate reader.
(§2) After normalization to controls, the percent activity for each compound concentration was calculated by measuring the amount of remaining radioactivity. The plot of percent activity versus the log of compound concentration was fit with a 4-parameter dose response equation to calculate EC50 values.

full-length HAQ STING = full-length HAQ STING (Homo sapiens (Human), UniProt Q86WV6, G230A/H232R/R293Q/R71H); assay: 3H-cGAMP filtration binding assay (HAQ STING); settings: competition with tritiated cGAMP, HAQ STING membrane
full-length HAQ STING, sequence (Q86WV6 other isoform, or with tags, fused parts or gaps, stated change not applied): as the sequence (Q86WV6 other isoform, or with tags, fused parts or gaps H232R (already in the parent)) above, with R71H, G230A, R293Q counted along it
From the text: as §1, with “the” for “their”, “Hi-Five” for “Trichoplusia ni”, “membranes” for “membranes (Tni; Expression Systems, cat #94-002F, www.expressionsystems.com)”, “HAQ” for “WT”
as §1, with “www.exrpressionsystems.com)” for “www.expressionsystems.com)”, “HAQ” for “WT”
The basic HAQ STING filtration assay protocol is as follows:
Compound and membrane then preincubated for 60 min at RT to allow compound binding to equilibrate. Following equilibration, 8 nM of [^3H] c-GAMP ligand was prepared by diluting into assay buffer, and 50 uL of this working stock was then manually added to each well of the assay plate. […] The filter plates were then dried at 55° C. for 30 min using a pressurized VWR oven before 30 uL of Ultima GoldF scintillate was added to each well. Tritium levels for each reaction well were then measured using a PerkinElmer TopCount plate reader.
as §2

SMILES: Nc1nc2c(ncn2[C@@H]2O[C@@H]3COP(O)(=S)O[C@@H]4[C@H](F)[C@@H](COP(O)(=S)O[C@@H]2[C@@H]3F)O[C@H]4n2cnc3c(=O)[nH]c(N)nc32)c(=O)[nH]1 (single isomer, unassigned) [Example 22]
- % Effect at 30 μM relative to 2′3′-cGAMP (THP1 cells): 129%
- EC50 (full-length WT STING): < 1 nM

SMILES: Nc1nc2c(ncn2[C@@H]2O[C@@H]3COP(O)(=S)O[C@@H]4[C@H](F)[C@@H](COP(O)(=S)O[C@@H]2[C@@H]3F)O[C@H]4n2cnc3c(=O)[nH]c(N)nc32)c(=O)[nH]1 (single isomer, unassigned) [Example 23]
- % Effect at 30 μM relative to 2′3′-cGAMP (THP1 cells): 135%
- EC50 (full-length WT STING): 4 nM

SMILES: Nc1nc2c(ncn2[C@@H]2O[C@@H]3COP(O)(=S)O[C@@H]4[C@H](F)[C@@H](COP(O)(=S)O[C@@H]2[C@@H]3F)O[C@H]4n2cnc3c(=O)[nH]c(N)nc32)c(=O)[nH]1 (single isomer, unassigned) [Example 24]
- % Effect at 30 μM relative to 2′3′-cGAMP (THP1 cells): 84%
- EC50 (full-length WT STING): 1.2 nM

SMILES: C[C@@H]1OP(=O)(O)O[C@@H]2[C@H](F)[C@@H](COP(=O)(O)O[C@@H]3[C@H](O)[C@@H]1O[C@H]3n1cnc3c(N)ncnc31)O[C@H]2n1cnc2c(=O)[nH]c(N)nc21 [Example 8, 2-amino-9-[(1R,6R,8R,9S,13S,14S,16R,17R,18R)-16-(6-amino-9H-purin-9-yl)-18-fluoro-3,11,17-trihydroxy-13-methyl-3,11-dioxido-2,4,7,10,12,15-hexaoxa-3,11-diphosphatricyclo[12.2.1.16,9]octadec-8-yl]-1,9-dihydro-6H-purin-6-one]
- activation at 30 µM (THP1 cells): 36%
- EC50 (full-length HAQ STING): 102 nM

SMILES: Nc1nc2c(ncn2[C@@H]2O[C@@H]3COP(=O)(O)O[C@@H]4C[C@@H](COP(=O)(O)O[C@@H]2[C@@H]3F)O[C@H]4n2cnc3c(N)ncnc32)c(=O)[nH]1 [Example 9, 2-amino-9-[(1R,6R,8R,9S,14S,16R,18R)-16-(6-amino-9H-purin-9-yl)-18-fluoro-3,11-dihydroxy-3,11-dioxido-2,4,7,10,12,15-hexaoxa-3,11-diphosphatricyclo[12.2.1.1^6,9]octadec-8-yl]-1,9-dihydro-6H-purin-6-one]
- activation at 30 µM (THP1 cells): 115%
- EC50 (full-length HAQ STING): 3.7 nM

SMILES: Nc1nc2c(ncn2[C@@H]2O[C@@H]3COP(=O)(O)O[C@@H]4[C@H](F)[C@@H](COP(=O)(O)O[C@@H]2[C@@H]3F)O[C@H]4n2cnc3c(N)ncnc32)c(=O)[nH]1 [Example 11, 2-amino-9-[(1S,6R,8R,9S,14R,16R,17R,18R)-16-(6-amino-9H-purin-9-yl)-17,18-difluoro-3,11-dihydroxy-3,11-dioxido-2,4,7,10,12,15-hexaoxa-3,11-diphosphatricyclo[12.2.1.1^6,9]octadec-8-yl]-1,9-dihydro-6H-purin-6-one]
- activation at 30 µM (THP1 cells): 131%
- EC50 (full-length HAQ STING): < 1 nM

SMILES: Nc1nc2c(ncn2[C@@H]2O[C@@H]3COP(=O)(O)O[C@@H]4C[C@@H](COP(=O)(O)O[C@@H]2C3)O[C@H]4n2cnc3c(N)ncnc32)c(=O)[nH]1 [Example 12, 2-amino-9-[(1R,6S,8R,9R,14S,16R)-16-(6-amino-9H-purin-9-yl)-3,11-dihydroxy-3,11-dioxido-2,4,7,10,12,15-hexaoxa-3,11-diphosphatricyclo[12.2.1.1^6,9]octadec-8-yl]-1,9-dihydro-6H-purin-6-one]
- activation at 30 µM (THP1 cells): 50%
- EC50 (full-length HAQ STING): 674 nM

SMILES: Nc1nc2c(ncn2[C@@H]2O[C@@H]3COP(=O)(O)O[C@@H]4[C@@H](F)[C@@H](COP(=O)(O)O[C@@H]2[C@@H]3F)O[C@H]4n2cnc3c(N)ncnc32)c(=O)[nH]1 [Example 13, 2-amino-9-[(1S,6R,8R,9S,14R,16R,17S,18R)-16-(6-amino-9H-purin-9-yl)-17,18-difluoro-3,11-dihydroxy-3,11-dioxido-2,4,7,10,12,15-hexaoxa-3,11-diphosphatricyclo[12.2.1.1^6,9]octadec-8-yl]-1,9-dihydro-6H-purin-6-one]
- activation at 30 µM (THP1 cells): 128%
- EC50 (full-length HAQ STING): 11.2 nM

SMILES: Nc1ncnc2c1ncn2[C@@H]1O[C@@H]2COP(=O)(S)O[C@@H]3[C@H](O)[C@@H](COP(=O)(S)O[C@@H]1[C@@H]2O)O[C@H]3n1cnc2c(N)ncnc21 (stereo partly drawn) [Example 27, (1R,6R,8R,9R,14R,16R,17R,18R)-8,16-bis(6-amino-9H-purin-9-yl)-3,11-disulfanyl-2,4,7,10,12,15-hexaoxa-3,11-diphosphatricyclo[12.2.1.1^6,9]octadecane-17,18-diol 3,11-dioxide]
- activation at 30 µM (THP1 cells): 76%
- EC50 (full-length HAQ STING): 6.6 nM

SMILES: Nc1nc2c(ncn2[C@@H]2O[C@@H]3COP(=O)(S)O[C@@H]4[C@@H](F)[C@@H](COP(=O)(S)O[C@@H]2[C@H]3F)O[C@H]4n2cnc3c(=O)[nH]c(N)nc32)c(=O)[nH]1 (stereo partly drawn) [Example 30, 9,9′-[(1S,6R,8R,9S,14R,16R,17S,18S)-17,18-difluoro-3,11-dioxido-3,11-disulfanyl-2,4,7,10,12,15-hexaoxa-3,11-diphosphatricyclo[12.2.1.1^6,9]octadecane-8,16-diyl]bis(2-amino-1,9-dihydro-6H-purin-6-one)]
- activation at 30 µM (THP1 cells): 8%
- EC50 (full-length WT STING): 7350 nM

SMILES: Nc1nc2c(nnn2[C@@H]2O[C@@H]3COP(=O)(S)O[C@@H]4[C@H](F)[C@@H](COP(=O)(S)O[C@@H]2[C@@H]3F)O[C@H]4n2nnc3c(=O)[nH]c(N)nc32)c(=O)[nH]1 (stereo partly drawn) [Example 31, 3,3′-[(1S,6R,8R,9S,14R,16R,17R,18R)-17,18-difluoro-3,11-dioxido-3,11-disulfanyl-2,4,7,10,12,15-hexaoxa-3,11-diphosphatricyclo[12.2.1.1^6,9]octadecane-8,16-diyl]bis(5-amino-3,6-dihydro-7H-[1,2,3]triazolo[4,5-d]pyrimidin-7-one)]
- activation at 30 µM (THP1 cells): 57%
- EC50 (full-length WT STING): < 1 nM

SMILES: Nc1nc2c(ncn2[C@@H]2O[C@@H]3COP(=O)(O)O[C@@H]4[C@H](N)[C@@H](COP(=O)(O)O[C@@H]2[C@@H]3O)O[C@H]4n2cnc3c(N)ncnc32)c(=O)[nH]1 [Example 33, 2-amino-9-[(1R,6R,8R,9R,14S,16R,17R,18R)-17-amino-16-(6-amino-9H-purin-9-yl)-3,11,18-trihydroxy-3,11-dioxido-2,4,7,10,12,15-hexaoxa-3,11-diphosphatricyclo[12.2.1.1^6,9]octadec-8-yl]-1,9-dihydro-6H-purin-6-one]
- activation at 30 µM (THP1 cells): 140%
- EC50 (full-length HAQ STING): 1.6 nM
